The record followed here is PMC9788418, “Design, Synthesis and Biological Evaluation of Syn and Anti-like Double Warhead Quinolinones Bearing Dihydroxy Naphthalene Moiety as Epidermal Growth Factor Receptor Inhibitors with Potential Apoptotic Antiproliferative Action” (Molecules, 2022).

Holding throughout (format): cell-based, human
The test system of series [1] is four tested cancer cell lines (A-549, MCF-7, Panc-1, HT-29). Briefly: Antiproliferative assay, average over the four cell lines. The settings on record: for GI50: Homo sapiens, mean of the four cancer cell lines; for fold less potent than 4a (GI50): relative to 4a. The protocol: The newly synthesized compounds were tested for antiproliferative activity against four different types of cancer cells: A-549 (epithelial cancer cell line), MCF-7 (breast cancer cell line), Panc-1 (pancreas cancer cell line), and HT-29 (colon cancer cell line).
After 24 h, medium was removed from the plates and the compounds in (in 0.1% DMSO) were added (in 200 μL medium to yield a final concentration of 0.1% v/v) to the wells of plates. A single compound was designated with four wells followed by incubation of plates for 96h at 37°C. After incubation, medium was removed completely from the plates followed by addition of MTT (0.4 mg/mL in medium) to each well and subsequent incubation of plates for 3h. MTT (along with the medium) was removed and DMSO (150μL) was added to each well of the culture plates, followed by vortexing and subsequent measurement of absorbance (at 540 nm) using microplate reader. The data are shown as percentage inhibition of proliferation in comparison with controls containing 0.1% 4.2.1.2. Assay for antiproliferative effect
To explore the antiproliferative potential of compounds MTT assay was performed according to previously reported procedure using different cell lines to explore the antiproliferative potential of compounds propidium iodide fluorescence assay was performed using different cell lines. To calculate the total nuclear DNA, a fluorescent dye (propidium iodide, PI) is used which can attach to the DNA, thus offering a quick and precise technique. PI cannot pass through the cell membrane and its signal intensity can be considered as directly proportional to quantity of cellular DNA. Cells whose cell membranes are damaged or have changed permeability are counted as dead ones. The assay was performed by seeding the cells of different cell lines at a density of 3000-7500 cells/well (in 200µl medium) in culture plates followed by incubation for 24h at 37 °C in humidified 5% CO2/95% air atmospheric conditions. The medium was removed; the compounds were added to the plates at 10 µM concentrations (in 0.1% DMSO) in triplicates, followed by incubation for 48 h. DMSO (0.1%) was used as control. After incubation, medium was removed followed by the addition of PI (25 µl, 50µg/mL in water/medium) to each well of the plates. At -80 °C, the plates were allowed to freeze for 24 h, followed by thawing at 25 °C. A fluorometer (Polar-Star BMG Tech) was used to record the readings at excitation and emission wavelengths of 530 and 620 nm for each well. The percentage cytotoxicity of compounds was calculated using the following formula:
Where ATC= Absorbance of treated cells and AC= Absorbance of control. Erlotinib was used as positive control in the assay.

A short description of series [2]: Cell viability assay (MTT) on normal cell line. The settings on record: human, MCF-10A mammary gland epithelial cells, four days. The method, then: A cell viability test was performed using MCF-10A (human mammary gland epithelial) cell line to investigate the effect of 4a–e and 7a–e on normal cell lines. In this investigation, a concentration of 50 µM of the studied compound is employed for four days, after which cell viability is assessed.
(§1) 4.2. Biological evaluation
4.2.1. Cytotoxic activity using MTT Assay and evaluation of IC50
MTT assay was carried out to study the effect of compounds on mammary epithelial cells (MCF-10A). The medium in which cells were propagated contained Dulbecco's modified Eagle's medium (DMEM)/ Ham's F-12 medium (1:1) supplemented with epidermal growth factor (20 ng/mL), hydrocortisone (500 ng/mL), insulin (10 μg/mL), 2 mM glutamine and 10% foetal calf serum. After every 2-3 days, the cells were passaged using trypsin ethylenediamine tetra acetic acid (EDTA). The cells were seeded at a density of 10^4 cells mL-1 in flat-bottomed culture plates containing 96 wells each. After 24 h, medium was removed from the plates and the compounds in (in 0.1% DMSO) were added (in 200 μL medium to yield a final concentration of 0.1% v/v) to the wells of plates. A single compound was designated with four wells followed by incubation of plates for 96h at 37°C. After incubation, medium was removed completely from the plates followed by addition of MTT (0.4 mg/mL in medium) to each well and subsequent incubation of plates for 3h. MTT (along with the medium) was removed and DMSO (150μL) was added to each well of the culture plates, followed by vortexing and subsequent measurement of absorbance (at 540 nm) using microplate reader. […]

Series [3] deals with Panc-1 (pancreas cancer cell line). Briefly: Antiproliferative assay. The note with it: Homo sapiens, PANC-1; read-out: Antiproliferative Activity IC50 ± SEM, Panc-1. The method, then:
as §1
4.2.1. Cytotoxic activity using MTT Assay and evaluation of IC50 […]
cells were seeded at a density of 10^4 cells mL-1 in flat-bottomed culture plates containing 96 wells each. After 24 h, medium was removed from the plates and the compounds in (in 0.1% DMSO) were added (in 200 μL medium to yield a final concentration of 0.1% v/v) to the wells of plates. A single […]
incubation, medium was removed completely from the plates followed by addition of MTT (0.4 mg/mL in medium) to each well and subsequent incubation of plates for 3h. MTT (along with the medium) was removed and DMSO (150μL) was added to each well of the culture plates, followed by vortexing and subsequent measurement of absorbance (at 540 nm) using microplate reader. The data […]
(§2) 4.2.1.2. Assay for antiproliferative effect
(§3) To explore the antiproliferative potential of compounds MTT assay was performed according to previously reported procedure using different cell lines to explore the antiproliferative potential of compounds propidium iodide fluorescence assay was performed using different cell lines. To calculate the total nuclear DNA, a fluorescent dye (propidium iodide, PI) is used which can attach to the DNA, thus offering a quick and precise technique. PI cannot pass through the cell membrane and its signal intensity can be considered as directly proportional to quantity of cellular DNA. Cells whose cell membranes are damaged or have changed permeability are counted as dead ones. The assay was performed by seeding the cells of different cell lines at a density of 3000-7500 cells/well (in 200µl […]
(§4) atmospheric conditions. The medium was removed; the compounds were added to the plates at 10 µM concentrations (in 0.1% DMSO) in triplicates, followed by incubation for 48 h. DMSO (0.1%) was used as control. After incubation, medium was removed followed by the addition of PI (25 µl, 50µg/mL in water/medium) to each well of the plates. At -80 °C, the plates were allowed to freeze for 24 h, followed by thawing at 25 °C. A fluorometer (Polar-Star BMG Tech) was used to record the readings at excitation and emission wavelengths of 530 and 620 nm for each well. The percentage cytotoxicity of compounds was calculated using the following formula:
(§5) Where ATC= Absorbance of treated cells and AC= Absorbance of control. […]
(§6) positive control in the assay.

The test system of series [4] is A-549 (epithelial cancer cell line). Briefly: Antiproliferative assay. The settings on record: Homo sapiens, A549; read-out: Antiproliferative Activity IC50 ± SEM, A-549. The protocol:
as §2, §3, §4, §5, §6

For series [5], the system named is MCF-7 (breast cancer cell line). Briefly: Antiproliferative assay. The settings on record: Homo sapiens, MCF7; read-out: Antiproliferative Activity IC50 ± SEM, MCF-7. The protocol:
as §2, §3, §4, §5, §6

In series [6] the test system is HT-29 (colon cancer cell line). Briefly: Antiproliferative assay. The note with it: Homo sapiens, read-out: Antiproliferative Activity IC50 ± SEM, HT-29. The protocol:
as §2, §3, §4, §5, §6

Each structure is given as a SMILES string.

The compound `Cn1c(=O)cc(-n2cc(COc3cccc4cccc(OCc5cn(-c6cc(=O)n(C)c7ccccc67)nn5)c34)nn2)c2ccccc21` [Compound 4e, 4,4′-(((naphthalene-1,8-diylbis(oxy))bis(methylene))bis(1H-1,2,3-triazole-4,1-diyl))-bis-(1-methylquinolin-2(1H)-one)] registered a GI50 in series [1] of 130 nM. Further, the “fold less potent than 4a (GI50)” value in series [1] is listed as “approximately 4 fold”. The same compound showed a viability at 96 h, 50 µM in series [2] of 90%. The IC50 in series [3] is 135 ± 13 nM; in series [4], 123 ± 12 nM; in series [5] it was 127 ± 12 nM; in series [6], 137 ± 13 nM.
As for `C#Cc1cccc(Nc2ncnc3cc(OCCOC)c(OCCOC)cc23)c1` [Erlotinib, reference compound], the GI50 in series [1] is 33 nM.
The compound `Cn1c(=O)cc(-n2cc(COc3cccc4c(OCc5cn(-c6cc(=O)n(C)c7ccccc67)nn5)cccc34)nn2)c2ccccc21` [Compound 7e, 4,4′-(((naphthalene-1,5-diylbis(oxy))bis(methylene))bis(1H-1,2,3-triazole-4,1-diyl))-bis-(1-methylquinolin-2(1H)-one)] gave a GI50 in series [1] of 134 nM. The “fold less potent than 4a (GI50)” value in series [1] is given as “approximately 4 fold”. The same compound registered a viability at 96 h, 50 µM in series [2] of 85%. Also, the IC50 in series [3] was found to be 136 ± 13 nM; in series [4] it was 126 ± 13 nM; in series [5], 130 ± 13 nM; in series [6] it was 143 ± 14 nM.
For `Cc1ccc2[nH]c(=O)cc(-n3cc(COc4cccc5c(OCc6cn(-c7cc(=O)[nH]c8ccc(C)cc78)nn6)cccc45)nn3)c2c1` [Compound 7b, 4,4′-(((naphthalene-1,5-diylbis(oxy))bis(methylene))bis(1H-1,2,3-triazole-4,1-diyl))-bis-(6-methylquinolin-2(1H)-one)], in series [1], halving of growth (GI50) required 65 nM. In addition, the viability at 96 h, 50 µM in series [2] worked out at 93%. The IC50 in series [3] came to 67 ± 6 nM; in series [4], 63 ± 6 nM; in series [5], 65 ± 6 nM; in series [6] it was 67 ± 6 nM.
